Values quoted from earlier work, collected in patent US6673908B1, “Tumor necrosis factor receptor 2” (Nuvelo, Inc., priority 1999, dated 2004).
Structures can show the parent of a compound that is named as a salt. Where two headings read alike, the source gives them in different places.

Experiments:
5-lipoxygenase (5-LO) = biological target: T1, 5-lipoxygenase (5-LO) (Homo sapiens, UniProt P09917); conditions: for FEV1, % change from baseline: high dose
T1 construct: host or cells: asthma patients (in vivo, endogenous enzyme)
T1 sequence (P09917 1-674): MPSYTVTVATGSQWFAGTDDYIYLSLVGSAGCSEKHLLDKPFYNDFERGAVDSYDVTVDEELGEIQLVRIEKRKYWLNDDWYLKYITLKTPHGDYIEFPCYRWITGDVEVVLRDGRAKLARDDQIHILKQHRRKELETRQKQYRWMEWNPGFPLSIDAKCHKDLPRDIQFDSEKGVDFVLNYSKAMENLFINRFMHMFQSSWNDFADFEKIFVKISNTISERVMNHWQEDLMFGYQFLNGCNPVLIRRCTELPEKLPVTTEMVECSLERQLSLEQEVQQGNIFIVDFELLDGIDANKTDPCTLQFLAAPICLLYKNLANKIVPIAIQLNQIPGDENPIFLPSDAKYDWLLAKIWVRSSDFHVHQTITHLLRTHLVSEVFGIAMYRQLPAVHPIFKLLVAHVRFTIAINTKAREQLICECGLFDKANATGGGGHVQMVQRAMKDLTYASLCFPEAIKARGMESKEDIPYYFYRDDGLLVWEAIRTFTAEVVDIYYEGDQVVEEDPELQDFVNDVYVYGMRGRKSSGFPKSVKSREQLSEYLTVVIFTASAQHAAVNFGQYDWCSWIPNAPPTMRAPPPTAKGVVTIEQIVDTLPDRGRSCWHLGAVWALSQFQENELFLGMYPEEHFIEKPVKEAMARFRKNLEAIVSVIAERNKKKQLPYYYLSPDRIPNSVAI

CD3 lymphocytes = conditions: in vivo
[1] = tested on: advanced colorectal cancer

## C[C@H](C#Cc1ccc(Cc2ccc(F)cc2)s1)N(O)C(N)=O [ABT-761]
5-lipoxygenase (5-LO); Mutant, Day 8
  FEV1, % change from baseline: 1.8%
5-lipoxygenase (5-LO); Mutant, Day 84
  FEV1, % change from baseline: 5%
5-lipoxygenase (5-LO); Wild type, Day 8
  FEV1, % change from baseline: 8.2%
5-lipoxygenase (5-LO); Wild type, Day 84
  FEV1, % change from baseline: 18.5%
5-lipoxygenase (5-LO); heterozygous patients, high-dose active treatment, within one week
  improvement of forced expiratory volume: 23.3±6.0%
5-lipoxygenase (5-LO); patients with mutant genotype, active 5-LO inhibitor treatment
  improvement of forced expiratory volume: −1.2±2.9%
5-lipoxygenase (5-LO); wild-type patients, high-dose active treatment
  improvement of forced expiratory volume: 18.8±3.6%

## COc1ccc(CC(C)NCC(O)c2ccc(O)c(NC=O)c2)cc1 (stereo not shown) [Formoterol]
β2-adrenergic receptor; Arg 16 (n = 4)
  Degree of Brochodilator Desensitisation after Formoterol Therapy: 6 Hour FEF25-75: 23%
  Degree of Brochodilator Desensitisation after Formoterol Therapy: 6 hour FEV1: 28%
  Degree of Brochodilator Desensitisation after Formoterol Therapy: Maximal FEF25-75: −35%
  Degree of Brochodilator Desensitisation after Formoterol Therapy: Maximal FEV1: −8%
β2-adrenergic receptor; Arg16 homozygotes
  mean FEV1 desensitisation: 28%
β2-adrenergic receptor; Gln27 (n = 5)
  Degree of Brochodilator Desensitisation after Formoterol Therapy: 6 Hour FEF25-75: 38%
  Degree of Brochodilator Desensitisation after Formoterol Therapy: 6 hour FEV1: 47%
  Degree of Brochodilator Desensitisation after Formoterol Therapy: Maximal FEF25-75: −15%
  Degree of Brochodilator Desensitisation after Formoterol Therapy: Maximal FEV1: 3%
β2-adrenergic receptor; Glu/Gln27 (n = 11)
  Degree of Brochodilator Desensitisation after Formoterol Therapy: 6 Hour FEF25-75: 70%
  Degree of Brochodilator Desensitisation after Formoterol Therapy: 6 hour FEV1: 65%
  Degree of Brochodilator Desensitisation after Formoterol Therapy: Maximal FEF25-75: 45%
  Degree of Brochodilator Desensitisation after Formoterol Therapy: Maximal FEV1: 52%
β2-adrenergic receptor; Gly 16 (n = 10)
  Degree of Brochodilator Desensitisation after Formoterol Therapy: 6 Hour FEF25-75: 103%
  Degree of Brochodilator Desensitisation after Formoterol Therapy: 6 hour FEV1: 80%
  Degree of Brochodilator Desensitisation after Formoterol Therapy: Maximal FEF25-75: 73%
  Degree of Brochodilator Desensitisation after Formoterol Therapy: Maximal FEV1: 48%
β2-adrenergic receptor; Gly16 homozygotes
  mean FEV1 desensitisation: 80%
β2-adrenergic receptor; Gly/Arg 16 (n = 8)
  Degree of Brochodilator Desensitisation after Formoterol Therapy: 6 Hour FEF25-75: 70%
  Degree of Brochodilator Desensitisation after Formoterol Therapy: 6 hour FEV1: 57%
  Degree of Brochodilator Desensitisation after Formoterol Therapy: Maximal FEF25-75: 50%
  Degree of Brochodilator Desensitisation after Formoterol Therapy: Maximal FEV1: 48%

## Nc1c2c(nc3ccccc13)CCCC2 [Cognex, tacrine hydrochloride]
Alzheimer's disease patients
  patients showing no change or minimal worsening of their disease: about 45%
Alzheimer's patients
  patients minimally improved: About 58%
  patients much improved: about 2%

## Monoclonal antibody: murine monoclonal antibody to deplete the circulating CD3 lymphocytes; reacts with the T3 recognition site of T-lymphocytes
CD3 lymphocytes
  sensitization rate: 15-40%
  treated patients producing human anti-mouse antibodies (HAMA): 80%

## interferon alpha
Hepatitis C virus (HCV); hepatitis C virus infection
  patients in whom viral infection is completely and permanently eliminated: less than a quarter of patients
  patients receiving virtually no benefit: Nearly half of patients
Hepatitis C virus (HCV); patients with HCV genotype 1 (especially 1b)
  response rates: under 10%
Hepatitis C virus (HCV); patients with HCV genotype 2 or 3
  response rates: greater than 40%

## O=c1[nH]cc(F)c(=O)[nH]1 [5-fluorouracil]
[1]
  patients with a complete response (complete tumor disappearance): 1-5%
  patients with an objective response: 20-40%
